Test results reported in patent US9056837B2, “Heterocycle compounds and uses thereof” (Intra-Cellular Therapies, Inc., priority 2007, dated 2015).

Experiment: Mouse brain/plasma distribution assay for tissue levels of test compounds
Type: in vivo, C57b1/6 black mice
Details: C57Bl/6, mouse, brain, sc; mice, subcutaneous single injection of 1 mg (10 mM DMSO solution); four hours post-administration; measured minus 2% of plasma
Experimental: Compounds are administered subcutaneously to C57b1/6 black mice as a single injection of 1 mg using a 10 mM DMSO solution. After 2 or 4 hours, the mice are sacrificed. Trunk blood is collected into tubes with potassium-EDTA as anticoagulant and centrifuged at 5000×g for 10 min. The upper plasma phase is decanted from cellular components. Whole brain is sonicated with 20 mM Tris-HCl, 135 mM NaCl, pH 7.4 buffer, giving at 200 mg/mL (w/v) homogenate. Brain homogenate or plasma is extracted with 2 volumes of acetonitrile and clarified by centrifugation at 15,000×g for 20 min. Extracts are separated by HPLC using a Waters Alliance 2695 separations module with a Sunfire™ C18 column (3.5 micron, 2.1×50 mm) and a gradient of methanol over 15 min in a mobile phase of 0.1% formic acid. The separation is monitored by a Micromass Quattro Micro triple-quadrupole mass-spectrometric detector. Compound standardization is performed by methods analogous to those previously reported, e.g., by Zhao, M., et al. (2005) J Chromatogr B Analyt Technol Biomed Life Sci 819, 73-80; and Appels, N. M et al. (2005) Rapid Commun Mass Spectrom 19, 2187-2192. Brain concentration=measured−2% of plasma B/P ratio=brain concentration/plasma concentration

Question: Which concentration at 4 h does the source give for `Cc1ccc(NC(=O)c2ccc(CN3CCN(C)CC3)cc2)cc1Nc1nccc(-c2cccnc2)n1` [imatinib] here?
Answer: < 100 nM
